Experimental data from BindingDB's records for doi:10.1016/j.bmcl.2011.09.060 (Second Military Medical University, 2011).

Target: Acrosin (Homo sapiens, UniProt P10323)
Experiment: Inhibition of acrosin activity in human spermatozoa using N-alpha-benzoyl-DL-arginine para-nitroanilide-HCI as a substrate after 3 hrs by spectrophotometric analysis

Sequence of Acrosin (P10323 20-42 limits assumed): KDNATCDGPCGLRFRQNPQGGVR
Sequence of Acrosin (P10323 43-343 limits assumed): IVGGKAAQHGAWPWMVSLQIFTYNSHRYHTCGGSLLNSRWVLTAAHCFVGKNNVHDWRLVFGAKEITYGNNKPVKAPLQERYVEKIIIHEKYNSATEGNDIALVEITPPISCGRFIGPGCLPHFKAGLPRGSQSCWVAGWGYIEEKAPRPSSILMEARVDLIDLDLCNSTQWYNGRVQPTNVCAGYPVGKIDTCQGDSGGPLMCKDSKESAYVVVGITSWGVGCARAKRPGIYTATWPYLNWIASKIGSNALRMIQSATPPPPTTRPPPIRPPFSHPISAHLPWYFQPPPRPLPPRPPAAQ

Row | Compound | IC50
1 | N=C(N)NS(=O)(=O)c1ccc(NC(=O)COc2ccc([N+](=O)[O-])cc2)cc1 | 4.2 mM
2 | N=C(N)NS(=O)(=O)c1ccc(NC(=O)c2ccc(CCl)cc2)cc1 | 3.84 mM
3 | N=C(N)NS(=O)(=O)c1ccc(NC(=O)c2cccc(C(F)(F)F)c2)cc1 | 7.05 mM
4 | N=C(N)NS(=O)(=O)c1ccc(NC(=O)c2ccc(Cl)cc2Cl)cc1 | 5.63 mM
5 | N=C(N)NS(=O)(=O)c1ccc(NC(=O)c2ccccc2Br)cc1 | 7.63 mM
6 | NC(N)=NS(=O)(=O)c1ccc(NC(=O)c2c(Cl)cccc2Cl)cc1 | 5.96 mM
7 | COC(=O)c1ccc(OC(=O)c2ccc(NC(=N)N)cc2)cc1 | 0.027 mM
8 | COc1ccc(C(=O)Nc2ccc(S(=O)(=O)NC(=N)N)cc2)cc1 | 2.21 mM
9 | CC1CCCCN1CC(=O)Nc1ccc(S(=O)(=O)N=C(N)N)cc1 (stereo unspecified) | 9.9 mM
10 | Cc1cc(C)c(C(=O)Nc2ccc(S(=O)(=O)NC(=N)N)cc2)c(C)c1 | 2.45 mM
11 | CCOC(=O)C1CCN(CC(=O)Nc2ccc(S(=O)(=O)N=C(N)N)cc2)CC1 | 2.99 mM
12 | CCCCOC(=O)C1CCN(CC(=O)Nc2ccc(S(=O)(=O)NC(=N)N)cc2)CC1 | 9.5 mM
13 | Cc1cccc(OCC(=O)Nc2ccc(S(=O)(=O)N=C(N)N)cc2)c1 | 8.92 mM
14 | CCCCC(=O)Nc1ccc(S(=O)(=O)NC(=N)N)cc1 | 1.58 mM
15 | N=C(N)NS(=O)(=O)c1ccc(NC(=O)COc2ccc(Cl)cc2)cc1 | 9.35 mM
16 | N=C(N)NS(=O)(=O)c1ccc(NC(=O)COc2ccccc2)cc1 | 2.3 mM

More lines, in order of falling IC50, values ahead:

Row | IC50 | Compound
17 | 9.84 mM | COc1ccc(OCC(=O)Nc2ccc(S(=O)(=O)N=C(N)N)cc2)cc1
18 | 9.58 mM | CCCC(=O)Nc1ccc(S(=O)(=O)NC(=N)N)cc1
19 | 9.3 mM | COC(=O)C1CCN(CC(=O)Nc2ccc(S(=O)(=O)NC(=N)N)cc2)CC1
20 | 9.3 mM | Cc1ccccc1OCC(=O)Nc1ccc(S(=O)(=O)NC(=N)N)cc1
21 | 9 mM | CCC(=O)Nc1ccc(S(=O)(=O)N=C(N)N)cc1
22 | 8.98 mM | Cc1ccc(OCC(=O)Nc2ccc(S(=O)(=O)N=C(N)N)cc2)cc1
23 | 7.41 mM | NC(N)=NS(=O)(=O)c1ccc(NC(=O)CN2CCCCC2)cc1
24 | 7.18 mM | N=C(N)NS(=O)(=O)c1ccc(NC(=O)c2c(F)cccc2F)cc1
25 | 7.11 mM | N=C(N)NS(=O)(=O)c1ccc(NC(=O)c2ccc(F)cc2)cc1
26 | 7 mM | N=C(N)NS(=O)(=O)c1ccc(NC(=O)c2cccc(Cl)c2)cc1
27 | 6.3 mM | N=C(N)NS(=O)(=O)c1ccc(NC(=O)c2ccccc2Cl)cc1
28 | 4.98 mM | CC1CCN(CC(=O)Nc2ccc(S(=O)(=O)NC(=N)N)cc2)CC1
29 | 3.8 mM | NC(N)=NS(=O)(=O)c1ccc(NC(=O)c2ccc(Cl)c(Cl)c2)cc1
30 | 3.31 mM | CCCOC(=O)C1CCN(CC(=O)Nc2ccc(S(=O)(=O)N=C(N)N)cc2)CC1
31 | 2.51 mM | CC(C)CCOC(=O)C1CCN(CC(=O)Nc2ccc(S(=O)(=O)NC(=N)N)cc2)CC1
32 | 2.5 mM | NC(N)=NS(=O)(=O)c1ccc(NC(=O)c2cc([N+](=O)[O-])cc([N+](=O)[O-])c2)cc1
33 | 2.35 mM | CC(C)OC(=O)C1CCN(CC(=O)Nc2ccc(S(=O)(=O)NC(=N)N)cc2)CC1
34 | 2.06 mM | Cc1ccc(C(=O)Nc2ccc(S(=O)(=O)NC(=N)N)cc2)cc1
35 | 0.21 mM | CCc1ccc(C(=O)Nc2ccc(S(=O)(=O)N=C(N)N)cc2)cc1
36 | 0.13 mM | CCOc1ccc(C(=O)Nc2ccc(S(=O)(=O)NC(=N)N)cc2)cc1
